Laboratory results published in article PMC9181589, “Antamanide Analogs as Potential Inhibitors of Tyrosinase” (International Journal of Molecular Sciences, 2022).
Entries after “also recorded” stand apart in the source; their conditions may differ.

Assays:
B16F10 metastatic cells = details: after 24 h of treatment; cited from earlier work
Excerpt: In the past years, we evaluated the chemical and biological activities of the cyclic decapeptide antamanide, firstly isolated from the lipophilic fraction of an extract of Amanite phalloides by the T. Wieland’s group in 1962 [3]. A characteristic of this peptide is its ability to form complexes of high stability with metal ions, including Na^+, K^+, Ca^2+, Tl^3+, and others. A close correlation has been found between the ion binding properties and the selectivity for Na^+ over K^+ with its antitoxic activity against phallotoxins and the prevention of their accumulation ... || Antamanide is a cyclic decapeptide isolated from the lipophilic fraction of an extract of the green toadstool Amanite phalloides, able to form complexes of high stability with different metal ions. In order to improve the hydrophilicity of this peptide, the Phe residue at either the six or nine positions was replaced with a Gly residue.

mushroom tyrosinase = test: Tyrosinase inhibition, UV-Vis spectroscopic method (L-Tyr oxidation by tyrosinase/O2); type: biochemical
Excerpt: The capability of peptides to inhibit the activity of tyrosinase has been evaluated by a UV-Vis spectroscopic method monitoring the changes in the UV-Vis spectrum of its natural substrate, L-Tyr. […] The addition of enzyme firstly hydroxylated the L-Tyr residue to dihydroxyphenylalanine (DOPA) and successively oxidized DOPA to dopaquinone, which is then converted to dopachrome (Scheme 2). Both DOPA and dopaquinone appearance can be detected by the change in the UV-Vis spectrum. The hydroxylation of L-Tyr to DOPA is characterized by an increase in the intensity of the band at 275 nm and the appearance of an additional band at about 304 nm, while the oxidation to dopaquinone is made detectable by the appearance of a band at 470–490 nm. […] This phase is related to the monophenolase activity of the enzyme and essentially is due to the low amount of the oxy form of the tyrosinase enzyme in the commercially available preparation. Although other various factors may play an important role, including substrate and enzyme concentration, enzyme source, pH of the medium, and presence of hydrogen donors such as DOPA or other catechols, also the presence of transition metal ions can influence the presence and the length of this lag-phase.
Millimolar peptide stock solutions were prepared in DMSO and then diluted to μM concentration by buffer in UV cells. […] The capability of peptides to inhibit the tyrosinase activity was evaluated at two different peptide concentrations, 2 and 0.2 µM.
The capability of cyclic peptides to inhibit the oxidation of Tyr by the tyrosinase/O2 oxidizing system was monitored by means of a UV-Vis spectroscopy method, carried out in a Shimadzu UV-Visible UV-2501 spectral spectrophotometer using Helma (Mülheim, Germany) duple chambers UV-cell (2 × 4.375 mm). Briefly, 880 µL of a Tyr solution (2 mM) and 900 µL of a mushroom tyrosinase solution (2000 U/mL, Sigma-Aldrich), both dissolved in 50 mM phosphate buffer (pH 6.8), were separately introduced in the duple UV-cell chambers. A total of 20 µL of an appropriate DMSO stock solution of inhibitors (1.8, 0.18, or 0.018 mM) were added to the chamber containing the Tyr solution. The tyrosinase activity in absence of inhibitors was detected by adding 20 µL of DMSO. A background UV-Vis spectrum was acquired in the 250–800 nm wavelength range with a 2.0 nm slit and fast speed before starting the reaction. Thereafter, the solutions were mixed, and UV-Vis spectra were acquired at different time points after mixing. Three replicates were performed for each experiment. Data processing was performed with UV Probe (Shimazdu, Kyoto, Japan) and OriginPro 2019 (v. 9.60) software (OriginLab Corporation, Northampton, MA, USA).
Purchased mushroom tyrosinase was used without further purification. […] The concentration of the two solution was determined spectrophotometrically (εTyr at 274.6 nm = 1.420; εtyrosinase at 280 nm = 1.426).
Tyrosinase-dependent diphenol and o-quinone formation was assessed as the appearance of a characteristic absorption band at about 304 and 477 nm, respectively. The inhibition activity was determined according to the following equation [33, 34]:% inhibition = 1 − [(D − C)/(B − A)] ∗ 100 where C and D are the absorbance values at either 304 or 477 nm in presence of inhibitor before mixing and upon reaching the maximum absorbance, respectively, while A and B are the corresponding values in absence of inhibitor.

[1] = cited from earlier work
Excerpt: Antamanide is a cyclic decapeptide isolated from the lipophilic fraction of an extract of the green toadstool Amanite phalloides, able to form complexes of high stability with different metal ions. In order to improve the hydrophilicity of this peptide, the Phe residue at either the six or nine positions was replaced with a Gly residue.

| Substance | cell proliferation of metastatic melanoma cell line (B16F10 metastatic cells) | effects on tyrosinase activity (mushroom tyrosinase; antamanide concentration 20 µM, data not shown) | tyrosinase inhibitory activity (mushroom tyrosinase; peptide 2 and 0.2 µM from DMSO stock, L-Tyr substrate, 50 mM phosphate buffer pH 6.8, UV-Vis at 304 and 477 nm, three replicates) | ions selectivity [1] | dependence of tyrosinase inhibitory activity on peptide concentration (mushroom tyrosinase; 2 versus 0.2 µM (Figure 4)) | inhibitory activity towards the hydroxylation of tyrosine (mushroom tyrosinase; calculated at 303 nm, peptide 2 and 0.2 µM, 50 mM phosphate buffer pH 6.8) | inhibition of the oxidation of DOPA to dopaquinone (mushroom tyrosinase; calculated at 477 nm, peptide 2 and 0.2 µM, 50 mM phosphate buffer pH 6.8, three replicates) |
| --- | --- | --- | --- | --- | --- | --- | --- |
| antamanide | significant reduction of cell proliferation | absence of effects | did not inhibit; also recorded: No inhibitory activity; also recorded: not able to inhibit | Ca > Na >> K | – | – | – |
| pseudostellarin A [PS-A] | – | – | – | – | lower when the concentration was higher | low activity | about 30% |
